Measurements taken from patent publication US9932339B2, “Helquats with heteroaromatic substituents, preparation thereof, and use thereof as G-quadruplex stabilizers” (USTAV ORGANICKE CHEMIE A BIOCHEMIE AV CR, V.V.I., priority 2014, dated 2018).

How the values were obtained:
[1] = tested on: G-quadruplex oligonucleotide Fmyc27T (NHE III1 promoter region of c-myc oncogene); test: FRET melting of G-quadruplex oligonucleotide Fmyc27T with ligands; format: binding; conditions: for ΔTm (° C.) Fmyc27T/ds26 (° C.): helquat 1 μmol·l^−1, oligonucleotide 0.2 μmol·l^−1, 50-fold excess of double-stranded competitor ds26; for ΔTm (° C.) Fmyc27T: helquat 1 μmol·l^−1, oligonucleotide 0.2 μmol·l^−1, without competitor
Source text: To determine the degree of in vitro interactions of helquats with G-quadruplex(es), the oligonucleotides containing the guanine-rich sequences of human telomere (F21T) and NHE III1 promoter region of c-myc oncogene (Fmyc27T) were used. Both oligonucleotides capable of forming an intramolecular G-quadruplex were end-labeled with suitable fluorophores so as to form donor-acceptor FRET pair (5′-FAM and 3′-TAMRA). If the oligonucleotide is folded into the structure of the G-quadruplex, donor is in close proximity of acceptor and radiationless energy transfer to the acceptor occurs. With increasing temperature of the reaction mixture G-quadruplex structure gradually denatures and thus the donor and acceptor (FAM-TAMRA) drift apart. This leads to an increase in fluorescence of donor (FAM) and a decrease in fluorescence of acceptor (TAMRA).
The result of measurement is the curve of dependence of the intensity of fluorescence of the donor on the temperature. If the G-quadruplex is stabilized by ligand, melting temperature will increase. Melting temperature of G-quadruplex corresponds to the temperature when 50% of the original amount of the folded G-quadruplex is denatured. The measurement outcome is the difference in the melting temperatures (ΔTm) of the G-quadruplex alone and the G-quadruplex stabilized by ligand. In case of Fmyc27T experiments were performed in cacodylate buffer (10 mmol·l^−1, pH=7.2) with KCl (5 mmol·l^−1) and LiCl (95 mmol·l^−1) oligonucleotide and in case of F21T oligonucleotide in cacodylate buffer (10 mmol·l^−1, pH=7.2) with KCl (25 mmol·l^−1) and LiCl (75 mmol·l^−1).
Both oligonucleotides were denatured for 5 minutes at 95° C. and subsequently allowed to cool to room temperature (3 hours) in the switched-off thermoblock. The final oligonucleotide concentration in the reaction mixture was 0.2 μmol·l^−1. Test helquats were present at concentrations of 1 μmol·l^−1. The total reaction volume was 30 μl. The melting temperature of the oligonucleotides alone (without the presence of helquats) under these conditions was 58.1±0.2° C. for F21T and 64.7±0.4° C. for Fmyc27T. For determining the selectivity of binding of helquats to G-quadruplex in comparison with the double-stranded DNA, 50-fold excess of double-stranded DNA ([…] unlabeled competitor ds26 forming a hairpin) is added to the reaction mixture. After the addition to the reaction mixture ds26 competes with labeled oligonucleotide (Fmyc27T or F21T) for ligand binding. […] Melting temperature of oligonucleotides alone in the presence of the competitor is 59.4±0.5° C. for F21T and 66.3° C.±0.6° C. for Fmyc27T.
Fluorescence of FAM donor was measured using real-time PCR apparatus Opticon 2 (excitation 470-505 nm and emission 523-543 nm) in temperature increments of 0.5° C. in the range 25 to 95° C. Evaluation of the sigmoid curves of fluorescence intensity dependent on the temperature were performed in GraphPad Prism 5 (GraphPad Software, Inc., USA). Using nonlinear five parametric regression the inflection point on the curve was calculated that corresponds to the melting temperature (Tm) of the G-quadruplex under the given conditions. The values were obtained from at least three independent measurements.

c-myc protein = test: Immunodetection of protein c-myc in HGC-27 cell lysates (Western blot); format: cell-based, human; conditions: 50 μmol · l^−1, 24 hour incubation, normalized to β-actin
Method in brief: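 HGC-27 cells seeded at 25,000 cells/cm^2, treated next day with 50 μmol·l^−1 helquat for 24 h. RIPA lysates separated by 12% SDS-PAGE, blotted and probed for c-myc with β-actin loading control; chemiluminescence densitometry, c-myc normalized to β-actin and expressed relative to untreated control.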

| Structure (SMILES) | ΔTm (° C.) Fmyc27T/ds26 (° C.) [1] [°C] | ΔTm (° C.) Fmyc27T [1] [°C] | c-myc protein expression relative to control (control = 100%) (c-myc protein) [%] |
| --- | --- | --- | --- |
| O=[N+]([O-])c1cccc2[nH]cc(/C=C/c3cc[n+]4c(c3)-c3c(ccc5c3-c3cccc[n+]3CC5)CC4)c12 (racemic) [LSA-C9-32, (rac)-(E)-2-(2-(4-nitro-1H-indol-3-yl)vinyl)-6,7,10,11-tetrahydrodipyrido[2,1-a:1′,2′-k][2,9]phenanthroline-5,12-diium trifluoromethanesulfonate] | 8.1 | 10.4 |  |
| Cc1c(C)c2c(c3c1CC[n+]1ccc(/C=C/c4cccc5c4oc4ccccc45)cc1-3)-c1c3ccccc3cc[n+]1CC2 (racemic) [MJA-C13-8, (rac)-(E)-13-(2-(dibenzo[b,d]furan-4-yl)vinyl)-6,7-dimethyl-4,5,8,9-tetrahydroisoquinolino[1,2-a]pyrido[1,2-k][2,9]phenanthroline-3,10-diium trifluoromethanesulfonate] | 4.9 | 11.0 | 58 |
| C(=C\c1cccc2c1oc1ccccc12)/c1cc[n+]2c(c1)-c1c(ccc3c1-c1c4ccccc4cc[n+]1CC3)CC2.O=S(=O)([O-])C(F)(F)F.O=S(=O)([O-])C(F)(F)F [MSB-C13-8, (E)-13-(2-(dibenzo[b,d]furan-4-yl)vinyl)-4,5,8,9-tetrahydroisoquinolino[1,2-a]pyrido[1,2-k][2,9]phenanthroline-3,10-diium trifluoromethanesulfonate] | 7.7 | 12.6 |  |
| Brc1ccc2[nH]cc(/C=C/c3cc4ccccc4[n+]4c3-c3c(ccc5c3-c3cccc[n+]3CCC5)CCC4)c2c1.O=S(=O)([O-])C(F)(F)F.O=S(=O)([O-])C(F)(F)F [MSC-C9-30, 19-((E)-2-(5-bromo-1H-indol-3-yl)vinyl)-6,7,8,11,12,13-hexahydropyrido[1′″,2′″:1″,2″]azepino[4″,3″:5′,6′]benzo[1′,2′:3,4]azepino[1,2-a]quinoline-5,14-diium trifluoromethanesulfonate] |  |  | 14 |
| C(=C\c1c(-c2ccccc2)[nH]c2ccccc12)/c1cc2ccccc2[n+]2c1-c1c(ccc3c1-c1cccc[n+]1CCC3)CCC2.O=S(=O)([O-])C(F)(F)F.O=S(=O)([O-])C(F)(F)F [MSC-C15-8, 19-((E)-2-(2-phenyl-1H-indol-3-yl)vinyl)-6,7,8,11,12,13-hexahydropyrido[1′″,2′″:1″,2″]azepino[4″,3″:5′,6′]benzo[1′,2′:3,4]azepino[1,2-a]quinoline-5,14-diium trifluoromethanesulfonate] |  |  | 58 |
